Experimental data as given in patent US20250114430A1, “MODIFIED PEPTIDOMIMETICS AND METHODS OF USE” (The University of North Carolina at Chapel Hill, priority 2021, published 2025).
Non-standard residues stand in square brackets, D forms with d. No end group written: not given here.

What was measured:
P. aeruginosa [1] = assay: P. aeruginosa infection in WT mice, ELD607 versus comparators; format: in vivo; settings: WT mice infected with P. aeruginosa
Excerpt: We then infected WT mice with P. aeruginosa and treated with ELD607, the Orai1 small molecule antagonist […], dexamethasone or scrambled ELD607.

P. aeruginosa [2] = assay: P. aeruginosa growth in the presence of peptide; format: cell-based; settings: in vitro
[3] = molecular target: T1, human neutrophil elastase (Homo sapiens, UniProt P08246); format: in vitro ADME
T1 sequence (P08246 30-267): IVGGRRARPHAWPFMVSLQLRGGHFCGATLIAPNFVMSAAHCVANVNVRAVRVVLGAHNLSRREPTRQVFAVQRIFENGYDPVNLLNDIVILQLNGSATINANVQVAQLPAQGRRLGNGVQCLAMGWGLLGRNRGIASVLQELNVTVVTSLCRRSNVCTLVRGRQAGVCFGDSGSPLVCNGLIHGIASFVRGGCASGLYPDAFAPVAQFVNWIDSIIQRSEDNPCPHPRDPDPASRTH
Procedure: Peptides were exposed to NE over time, and the reaction was stopped by addition of sivelestat. HPLC was then performed in order to determine peptide stability. N=3-4 replicates per time point.
HEK293T cells were plated and incubated for 2 hours with Fluo-4 plus or minus ELD peptides, with fluorescent images taken every 30 seconds for 2-6 minutes at excitation/emission wavelengths of 488/530 nm. […] Candidate peptides ELD604, 607, 601, and 100 were tested for resistance against protease degradation, wherein the peptides were incubated with neutrophil elastase, treated with the elastase inhibitor sivelestat at various timepoints to halt ongoing reactions, and then analyzed by HPLC (FIG. 9).
Endogenous Orai1/store operated Ca^2+ influx have been extensively studied in HEK293T cells, so this cell type was used to understand ELD607-Orai1 interactions. […] Thapsigargin is a SERCA pump inhibitor that prevents uptake of cytosolic Ca^2+ into the endoplasmic reticulum. Thapsigargin is commonly used to stimulate Orai1/store operated Ca^2+ influx. […] Dynamic light scattering (DLS) was used to evaluate binding of ELD607 to peptides of Orai1 extracellular loops. […] Thus, it was concluded that ELD607 interacts with Orai1.

Orai1 = Orai1 (Homo sapiens, UniProt Q96D31); assay: Dose response of Ca^2+ influx (SOCE), Ca^2+ add back approach, HEK293T cells; format: cell-based; parameters: Endogenous Orai1/store operated Ca^2+ influx have been extensively studied in HEK293T cells; endogenous in cells; host or cells: HEK293T
Procedure: HEK293T cells were cultured in 384 well plates. Cells were then exposed to vehicle or […] ELD607 for 1 h. 100 nM thapsigargin was then added followed by extracellular Ca^2+ to differentiate ER Ca^2+ release and SOCE. n=8-12 cultures per data point.
ELD607 requires Orai1 expression to inhibit Ca^2+ signaling. […] Using this approach, curves were fitted to the data and the 50% inhibitory concentrations (IC50S) were calculated.

HEK293T cells = assay: Cytoplasmic Ca^2+ (Fluo-4) in HEK293T cells incubated with ELD peptides; format: cell-based; settings: 2 hours with Fluo-4 plus or minus peptide
[4] = tested on: SARS-CoV-2 S1 pseudovirus; format: cell-based

Chain of Orai1 (Q96D31 whole entry): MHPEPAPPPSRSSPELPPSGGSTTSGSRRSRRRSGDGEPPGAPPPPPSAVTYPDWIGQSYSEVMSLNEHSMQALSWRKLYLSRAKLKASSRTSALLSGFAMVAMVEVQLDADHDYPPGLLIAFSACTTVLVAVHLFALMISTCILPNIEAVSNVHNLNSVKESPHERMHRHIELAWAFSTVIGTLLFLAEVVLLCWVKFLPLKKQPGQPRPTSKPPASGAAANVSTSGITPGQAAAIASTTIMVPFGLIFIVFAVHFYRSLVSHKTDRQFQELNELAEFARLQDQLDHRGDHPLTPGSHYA

| Compound | stability against neutrophil elastase [3] | cytoplasmic calcium levels as compared to a control scrambled peptide (HEK293T cells) | pseudovirus infection (% DsRed-positive cells) [4] | also measured |
| --- | --- | --- | --- | --- |
| Cc1nnsc1C(=O)Nc1ccc(-n2nc(C(F)(F)F)cc2C(F)(F)F)cc1 [YM-58453, reference compound] |  |  |  | neutrophilia, weight loss, bacterial infections and lung macrophage levels (these parameters) (P. aeruginosa [1]): neither −58453, dexamethasone nor scrambled ELD607 had any significant effects |
| O=C(O)c1cn(C2CC2)c2cc(N3CCNCC3)c(F)cc2c1=O [ciproflaxin, reference compound] |  |  |  | P. aeruginosa growth (P. aeruginosa [2]): fully inhibited bacterial growth |
| DITLVHDIVNMLIHGL [ELD100, DITLVHDIVNMLIHGL] | not neutrophil elastase resistant |  |  | IC50 (Orai1; Ca^2+ influx, HEK293T, 100 nM thapsigargin, read-out: IC50 (Molar)): 37 nM; Bottom (%) (Orai1; fitted curve bottom, text: maximal inhibitions): 57.03% |
| HDINMLIHG [ELD601, HDINMLIHG] | still degraded by elastase |  |  |  |
| a-HDIVNMLIH-a ([dA]HDIVNMLIH[dA]) [ELD604] | significantly more stable | reduced cytoplasmic calcium levels | inhibited viral replication |  |
| n-VHDIVNMLIHG-n (VHDIVNMLIHG-NH2; not fully specified; also: N-terminal amidation) [ELD621] |  | reduced cytoplasmic calcium levels | inhibited viral replication |  |
